“And” between values parts separate entries of the source, which are not always exact repeats. Equal entries are not always repeated. Starred links: 1 amine or outer side, 2 acyl side, 3 side chain; linkers in the order of their positions; H or OH if unused. Non-standard residues stand in square brackets, D forms with d. Residues, ends and D or L forms follow the SMILES beside them. Groups on a side chain read outwards from the residue. *: point of attachment. C20 diacid = O=C(O)CCCCCCCCCCCCCCCCCCC(=O)*; C18 diacid = O=C(O)CCCCCCCCCCCCCCCCC(=O)*; γGlu = O=C(O)[C@H](CCC(=O)[*:2])N[*:1]; NMeI = CC[C@H](C)[C@H](NC)C(=O)O; AEEA = NCCOCCOCC(=O)O
Experiments:
[1] = Pharmacokinetics, single subcutaneous dose, rats; settings: for half-life: T1/2, male Sprague Dawley rats
Protocol: (§1) Plasma concentrations of compounds were determined by LC/MS methods. Each method measured the intact compound; peptide plus linked time extension. For each assay, the compound and an analog, used as an internal standard (IS), were extracted from 100% mouse, rat or monkey plasma (25 μl) using acetonitrile. Two distinct layers were formed upon centrifugation with the compound and the IS located in the supernatant layer. An aliquot of the supernatant (80 μl) was transferred to a Thermo Protein Precipitation Plate with water (150 μl) and formic acid (25 μl) followed by mixing. A final 31% acetonitrile in 10% formic acid sample (10 μl) was loaded onto a Supelco Analytical Discovery BIO Wide Pore C5-3 column (5 cm×1 mm, 3 μm). The column effluent was directed into a Thermo Q-Exactive mass spectrometer for detection and quantitation.
Male Sprague Dawley rats were administered a single subcutaneous dose (50 or 150 nmol/kg) of a compound described herein in 20 mM Tris-HCl Tris Buffer (pH 8) at a volume of 0.26 or 0.77 mL/kg.

[2] = Pharmacokinetics, single subcutaneous dose, monkeys; settings: for half-life: T1/2, male Cynomolgus monkeys
Protocol: as §1
Male Cynomolgus monkeys were administered a single subcutaneous dose or intravenous dose (96.4 nmol/kg) of a compound described herein in 20 mM Tris-HCl Buffer (pH 7) at a volume of 1 mL/kg. Blood was collected from each animal at 2, 6, 24, 48, 72, 96, 168, 240, 336, 408, and 504 hours postdose for pharmacokinetic characterization.
Male Cynomolgus monkeys were also administered a single subcutaneous dose (50 nmol/kg) of a compound described herein in 20 mM Tris-HCl Buffer (pH 8) at a volume of 0.26 mL/kg. Blood was collected from each animal at 3, 6, 12, 24, 48, 72, 96, 120, 168, 192, 240, 336, 408, and 504 hours postdose for pharmacokinetic characterization.

[3] = Pharmacokinetics, single subcutaneous dose, mice; settings: sc
Protocol: as §1
Male CD-1 mice were administered a single subcutaneous dose (350, 386 or 388 nmol/kg) of a compound described herein in 20 mM Tris-HCl Tris Buffer (pH 7 or 8) at a volume of 0.05 or 0.06 mL/animal. Blood was collected at 6, 12, 24, 48, 72, 96, 120 and 168 hours postdose for pharmacokinetic characterization (101).

[4] = target: T1, human CRHR2b (Homo sapiens, UniProt Q13324); assay: human CRHR2b cell-based cAMP assay; settings: cAMP assay, CHO cells transfected with human CRHR2b; mean ± SEM of runs; read-out: hCRHR2b Average EC50
T1 construct: expressed in transfected cells; host or cells: Chinese Hamster Ovary (CHO) cells, transient transfection
T1 sequence (Q13324 1-438 isoform Q13324-2): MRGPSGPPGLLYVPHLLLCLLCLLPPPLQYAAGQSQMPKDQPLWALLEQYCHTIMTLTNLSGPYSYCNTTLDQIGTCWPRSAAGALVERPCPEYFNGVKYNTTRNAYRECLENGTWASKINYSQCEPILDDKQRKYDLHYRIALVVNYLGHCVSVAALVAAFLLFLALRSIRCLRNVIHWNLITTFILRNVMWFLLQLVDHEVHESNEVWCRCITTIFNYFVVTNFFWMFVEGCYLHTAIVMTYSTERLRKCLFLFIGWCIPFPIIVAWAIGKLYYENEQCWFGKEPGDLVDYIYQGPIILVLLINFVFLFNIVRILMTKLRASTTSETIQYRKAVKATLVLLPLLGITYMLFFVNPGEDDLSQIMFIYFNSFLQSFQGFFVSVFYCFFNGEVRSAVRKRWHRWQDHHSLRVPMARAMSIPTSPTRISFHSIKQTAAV
Method in brief: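 ED50 values are means ± SEM over several runs, curve-fitted from cAMP in pmol, calibrated against unlabeled-cAMP standards. Detection was HTRF competition, ratio 665/620 nm, after 30 min agonist exposure at 37 °C.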

[5] = male, Sprague Dawley, rat, plasma, sc, 150 nmol/kg
[6] = male Cynomolgus monkeys, single 96.4 nmol/kg s.c., individual animal
[7] = male, cynomolgus monkey, plasma, sc, 96.4 nmol/kg
[8] = male, CD-1, mouse, plasma, 386 nmol/kg
[9] = male Sprague Dawley rats, single 50 nmol/kg s.c., individual animal
[10] = male Sprague Dawley rats, single 150 nmol/kg s.c., individual animal
[11] = male, Sprague Dawley, rat, plasma, sc, 50 nmol/kg
[12] = male, Sprague Dawley, rat, plasma, sc, 50 nmol/kg, male Sprague Dawley rats, single 50 nmol/kg s.c., Mean
[13] = male, Sprague Dawley, rat, plasma, sc, 50 nmol/kg, male Sprague Dawley rats, single 50 nmol/kg s.c., individual animal
[14] = male, Sprague Dawley, rat, plasma, sc, 150 nmol/kg, male Sprague Dawley rats, single 150 nmol/kg s.c., Mean
[15] = male, Sprague Dawley, rat, plasma, sc, 150 nmol/kg, male Sprague Dawley rats, single 150 nmol/kg s.c., individual animal
[16] = male Cynomolgus monkeys, single 50 nmol/kg s.c., individual animal
[17] = male, cynomolgus monkey, plasma, sc, 50 nmol/kg
[18] = male, cynomolgus monkey, plasma, sc, 50 nmol/kg, Tmax, male Cynomolgus monkeys, single 50 nmol/kg s.c., Mean
[19] = male, cynomolgus monkey, plasma, sc, 50 nmol/kg, Tmax, male Cynomolgus monkeys, single 50 nmol/kg s.c., individual animal
[20] = male, CD-1, mouse, plasma, 350 nmol/kg

Compound	AUC(0-inf) [1, 5]	Cmax [1, 5]	EC50 [4]	Cmax [1, 9]	Cmax [1, 10]	AUC(0-inf) [1, 11]	Cmax [1, 11]	Tmax [1, 12]	Tmax [1, 13]	Tmax [1, 14]	Tmax [1, 15]	AUC(0-inf) [2, 16]	Cmax [2, 16]	AUC(0-inf) [2, 17]	Cmax [2, 17]	Tmax [2, 18]	Tmax [2, 19]	AUC(0-inf) [3, 20]	Cmax [3, 20]	Tmax [3, 20]	also measured
CC[C@H](C)[C@H](NC(C)=O)C(=O)N[C@H](C(=O)N[C@@H](CC(C)C)C(=O)N[C@@H](CO)C(=O)N[C@@H](CC(C)C)C(=O)N[C@@H](CC(=O)O)C(=O)N[C@H](C(=O)N1CCC[C@H]1C(=O)N[C@H](C(=O)NCC(=O)N[C@@H](CC(C)C)C(=O)N[C@@H](CC(C)C)C(=O)N[C@@H](CCC(N)=O)C(=O)N[C@H](C(=O)N[C@@H](CC(C)C)C(=O)N[C@@H](CC(C)C)C(=O)N[C@@H](CCC(=O)O)C(=O)N[C@@H](CCC(N)=O)C(=O)N[C@@H](CCC(=O)O)C(=O)N[C@@H](CCCCN)C(=O)N[C@@H](CCC(N)=O)C(=O)N[C@@H](CCC(=O)O)C(=O)N[C@@H](CCCCN)C(=O)N[C@@H](CCC(=O)O)C(=O)N[C@@H](CCCCN)C(=O)N[C@@H](CCC(N)=O)C(=O)N[C@@H](CCC(N)=O)C(=O)N[C@@H](C)C(=O)N[C@@H](CCCCNC(=O)COCCOCCNC(=O)COCCOCCNC(=O)CC[C@H](NC(=O)CC[C@H](NC(=O)CCCCCCCCCCCCCCCCCCC(=O)O)C(=O)O)C(=O)O)C(=O)N[C@H](C(=O)N[C@@H](CC(N)=O)C(=O)N[C@@H](C)C(=O)N[C@@H](CCC(N)=O)C(=O)N[C@H](C(=O)N[C@@H](CC(C)C)C(=O)N[C@@H](C)C(=O)N[C@@H](CCC(N)=O)C(=O)N[C@H](C(N)=O)C(C)C)[C@@H](C)CC)[C@@H](C)O)[C@@H](C)CC)[C@@H](C)CC)C(C)C)C(C)C [Example 2] (Ac-IVLSLDVPIGLLQILLEQEKQEKEKQQAK([AEEA-AEEA-γGlu-γGlu-C20 diacid])TNAQILAQV-NH2)	32.3 µM·h	429 nM	1.2 ± 0.52 nM	–	–	–	–	–	–	–	–	–	–	–	–	–	–	–	–	–	Tmax ([1]; rat, in vivo, sc, 150 nmol/kg, male Sprague Dawley rats, single 150 nmol/kg s.c., Mean): 24 h; Tmax ([1]; rat, in vivo, sc, 150 nmol/kg, male Sprague Dawley rats, single 150 nmol/kg s.c., individual animal): 24 h; Tmax ([2]; cynomolgus monkey, in vivo, sc, 96.4 nmol/kg, Tmax, male Cynomolgus monkeys, single 96.4 nmol/kg s.c., Mean): 36 h; Tmax ([2]; cynomolgus monkey, in vivo, sc, 96.4 nmol/kg, Tmax, male Cynomolgus monkeys, single 96.4 nmol/kg s.c., individual animal): 24 h; AUC(0-inf) [2, 6]: 237.954 µM·h and 245.711 µM·h; Cmax [2, 6]: 1238 nM and 1699 nM; Tmax [2, 6]: 48 h; AUC(0-inf) [2, 7]: 242 µM·h; Cmax [2, 7]: 1470 nM; AUC(0-inf) [3, 8]: 46.5 µM·h; Cmax [3, 8]: 1150 nM; Tmax ([3]; mouse, in vivo, 386 nmol/kg): 12 h
CC[C@H](C)[C@H](NC)C(=O)N[C@H](C(=O)N[C@@H](CC(C)C)C(=O)N[C@@H](CO)C(=O)N[C@@H](CC(C)C)C(=O)N[C@@H](CC(=O)O)C(=O)N[C@H](C(=O)N1CCC[C@H]1C(=O)N[C@H](C(=O)NCC(=O)N[C@@H](CC(C)C)C(=O)N[C@@H](CC(C)C)C(=O)N[C@@H](CCC(N)=O)C(=O)N[C@H](C(=O)N[C@@H](CC(C)C)C(=O)N[C@@H](CC(C)C)C(=O)N[C@@H](CCC(=O)O)C(=O)N[C@@H](CCC(N)=O)C(=O)N[C@@H](CCC(=O)O)C(=O)N[C@@H](CCCCN)C(=O)N[C@@H](CCC(N)=O)C(=O)N[C@@H](CCC(=O)O)C(=O)N[C@@H](CCCCN)C(=O)N[C@@H](CCC(=O)O)C(=O)N[C@@H](CCCCN)C(=O)N[C@@H](CCC(N)=O)C(=O)N[C@@H](CCC(N)=O)C(=O)N[C@@H](C)C(=O)N[C@@H](CCCCNC(=O)COCCOCCNC(=O)COCCOCCNC(=O)CC[C@H](NC(=O)CC[C@H](NC(=O)CCCCCCCCCCCCCCCCC(=O)O)C(=O)O)C(=O)O)C(=O)N[C@H](C(=O)N[C@@H](CC(N)=O)C(=O)N[C@@H](C)C(=O)N[C@@H](CCC(N)=O)C(=O)N[C@H](C(=O)N[C@@H](CC(C)C)C(=O)N[C@@H](C)C(=O)N[C@@H](CCC(N)=O)C(=O)N[C@H](C(N)=O)C(C)C)[C@@H](C)CC)[C@@H](C)O)[C@@H](C)CC)[C@@H](C)CC)C(C)C)C(C)C [Example 3] (H-[NMeI]VLSLDVPIGLLQILLEQEKQEKEKQQAK([AEEA-AEEA-γGlu-γGlu-C18 diacid])TNAQILAQV-NH2)	24.4 µM·h	499 nM	2 ± 1.11 nM	188 nM and 160 nM and 141 nM	531 nM and 496 nM and 470 nM	7.17 µM·h	163 nM	20 h	12 h	24 h	24 h	69.88 µM·h and 58.414 µM·h	441 nM and 432 nM	64.1 µM·h	437 nM	36 h	48 h	35.5 µM·h	1340 nM	12 h	CL/F [1, 9]: 0.125 mL/min/kg and 0.122 mL/min/kg; T1/2 [1, 9]: 14 h and 17 h; CL/F [1, 10]: 0.103 mL/min/kg and 0.107 mL/min/kg; CL/F ([1]; male, Sprague Dawley, rat, plasma, sc, 50 nmol/kg, CL/F, male Sprague Dawley rats, single 50 nmol/kg s.c., Mean): 0.117 mL/min/kg; CL/F ([1]; male, Sprague Dawley, rat, plasma, sc, 50 nmol/kg, CL/F, male Sprague Dawley rats, single 50 nmol/kg s.c., individual animal): 0.103 mL/min/kg; half-life ([1]; male, Sprague Dawley, rat, plasma, sc, 50 nmol/kg, single 50 nmol/kg s.c., Mean): 16 h; half-life ([1]; male, Sprague Dawley, rat, plasma, sc, 50 nmol/kg, single 50 nmol/kg s.c., individual animal): 16 h; CL/F ([1]; male, Sprague Dawley, rat, plasma, sc, 150 nmol/kg, CL/F, male Sprague Dawley rats, single 150 nmol/kg s.c., Mean): 0.1 mL/min/kg; CL/F ([1]; male, Sprague Dawley, rat, plasma, sc, 150 nmol/kg, CL/F, male Sprague Dawley rats, single 150 nmol/kg s.c., individual animal): 0.1 mL/min/kg; half-life ([1]; male, Sprague Dawley, rat, plasma, sc, 150 nmol/kg, single 150 nmol/kg s.c., Mean): 16 h; half-life ([1]; male, Sprague Dawley, rat, plasma, sc, 150 nmol/kg, single 150 nmol/kg s.c., individual animal): 16 h; CL/F [2, 16]: 0.0143 mL/min/kg; T1/2 [2, 16]: 70 h; CL/F ([2]; male, cynomolgus monkey, plasma, sc, 50 nmol/kg, CL/F, male Cynomolgus monkeys, single 50 nmol/kg s.c., Mean): 0.0132 mL/min/kg; CL/F ([2]; male, cynomolgus monkey, plasma, sc, 50 nmol/kg, CL/F, male Cynomolgus monkeys, single 50 nmol/kg s.c., individual animal): 0.012 mL/min/kg; half-life ([2]; male, cynomolgus monkey, plasma, sc, 50 nmol/kg, single 50 nmol/kg s.c., Mean): 85 h; half-life ([2]; male, cynomolgus monkey, plasma, sc, 50 nmol/kg, single 50 nmol/kg s.c., individual animal): 101 h; CL/F [3, 20]: 0.165 mL/min/kg; half-life [3, 20]: 14 h
CC[C@H](C)[C@H](NC)C(=O)N[C@H](C(=O)N[C@@H](CC(C)C)C(=O)N[C@@H](CO)C(=O)N[C@@H](CC(C)C)C(=O)N[C@@H](CC(=O)O)C(=O)N[C@H](C(=O)N1CCC[C@H]1C(=O)N[C@H](C(=O)NCC(=O)N[C@@H](CC(C)C)C(=O)N[C@@H](CC(C)C)C(=O)N[C@@H](CCC(N)=O)C(=O)N[C@H](C(=O)N[C@@H](CC(C)C)C(=O)N[C@@H](CC(C)C)C(=O)N[C@@H](CCC(=O)O)C(=O)N[C@@H](CCC(N)=O)C(=O)N[C@@H](CCC(=O)O)C(=O)N[C@@H](CCCCN)C(=O)N[C@@H](CCC(N)=O)C(=O)N[C@@H](CCC(=O)O)C(=O)N[C@@H](CCCCN)C(=O)N[C@@H](CCC(=O)O)C(=O)N[C@@H](CCCCN)C(=O)N[C@@H](CCC(N)=O)C(=O)N[C@@H](CCC(N)=O)C(=O)N[C@@H](C)C(=O)N[C@@H](CCCCNC(=O)COCCOCCNC(=O)COCCOCCNC(=O)CC[C@H](NC(=O)CC[C@H](NC(=O)CCCCCCCCCCCCCCCCCCC(=O)O)C(=O)O)C(=O)O)C(=O)N[C@H](C(=O)N[C@@H](CC(N)=O)C(=O)N[C@@H](C)C(=O)N[C@@H](CCC(N)=O)C(=O)N[C@H](C(=O)N[C@@H](CC(C)C)C(=O)N[C@@H](C)C(=O)N[C@@H](CCC(N)=O)C(=O)N[C@H](C(N)=O)C(C)C)[C@@H](C)CC)[C@@H](C)O)[C@@H](C)CC)[C@@H](C)CC)C(C)C)C(C)C [Example 4] (H-[NMeI]VLSLDVPIGLLQILLEQEKQEKEKQQAK([AEEA-AEEA-γGlu-γGlu-C20 diacid])TNAQILAQV-NH2)	25.1 µM·h	455 nM	1.85 ± 0.51 nM	126 nM and 150 nM and 127 nM	356 nM and 527 nM and 482 nM	7.51 µM·h	134 nM	24 h	24 h	24 h	24 h	51.829 µM·h and 46.654 µM·h	333 nM and 291 nM	49.2 µM·h	312 nM	36 h	48 h	51.6 µM·h	1160 nM	24 h	–

— patent publication US10894817B2, “Fatty acid modified urocortin-2 analogs for the treatment of diabetes and chronic kidney disease” (priority 2016, dated 2021)
